In patent publication US20250098679A1, “HERBICIDAL PYRIDONE DERIVATIVES” (SYNGENTA CROP PROTECTION AG, priority 2021, published 2025):

Legend:
Format in all cases: in vivo
Settings in all cases: evaluated after 13 days
Setaria faberi (SETFA) = experiment: Post-emergence Test, Setaria faberi (SETFA); set-up: key to percentage damage caused to the plant, SETFA (five-point scale): 5=81-100%, 4=61-80%, 3=41-60%, 2=21-40%, 1=0-20% damage
In short: (§1)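 Sown pots in a glasshouse (24/16 °C day/night, 14 h light, 65% humidity) were sprayed with compound in acetone/water (50:50) with 0.5% Tween 20, at 1000 g/ha unless otherwise stated. Damage was assessed 13 days after spraying and scored 1–5 (5=81-100%, 1=0-20%).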

[1] = test system: Echinochloa crus-galli (ECHCG); experiment: Post-emergence Test, Echinochloa crus-galli (ECHCG); set-up: key to percentage damage caused to the plant, ECHCG (five-point scale): 5=81-100%, 4=61-80%, 3=41-60%, 2=21-40%, 1=0-20% damage
In short: as §1

Zea mays (ZEAMX) = experiment: Post-emergence Test, Zea mays (ZEAMX); set-up: key to percentage damage caused to the plant, ZEAMX (five-point scale): 5=81-100%, 4=61-80%, 3=41-60%, 2=21-40%, 1=0-20% damage
In short: as §1

[2] = test system: Ipomoea hederacea (IPOHE); experiment: Post-emergence Test, Ipomoea hederacea (IPOHE); set-up: key to percentage damage caused to the plant, IPOHE (five-point scale): 5=81-100%, 4=61-80%, 3=41-60%, 2=21-40%, 1=0-20% damage
In short: as §1

[3] = test system: Amaranthus palmeri (AMAPA); experiment: Post-emergence Test, Amaranthus palmeri (AMAPA); set-up: key: 5=81-100%, 4=61-80%, 3=41-60%, 2=21-40%, 1=0-20% damage
In short: as §1

[4] = test system: Amaranthus retoflexus (AMARE); experiment: Post-emergence Test, Amaranthus retoflexus (AMARE); set-up: key to percentage damage caused to the plant, AMARE (five-point scale): 5=81-100%, 4=61-80%, 3=41-60%, 2=21-40%, 1=0-20% damage
In short: as §1

SMILES	percentage damage caused to the plant, SETFA (five-point scale) (Setaria faberi (SETFA); 250 g/Ha)	percentage damage caused to the plant, ECHCG (five-point scale) ([1]; 250 g/Ha)	percentage damage caused to the plant, ZEAMX (five-point scale) (Zea mays (ZEAMX); 250 g/Ha)	percentage damage caused to the plant, IPOHE (five-point scale) ([2]; 250 g/Ha)	percentage damage caused to the plant, AMAPA (five-point scale) ([3]; 250 g/Ha)	percentage damage caused to the plant, AMARE (five-point scale) ([4]; 250 g/Ha)	percentage damage caused to the plant, SETFA (five-point scale) (Setaria faberi (SETFA); 1000 g/ha)	percentage damage caused to the plant, ECHCG (five-point scale) ([1]; 1000 g/ha)	percentage damage caused to the plant, ZEAMX (five-point scale) (Zea mays (ZEAMX); 1000 g/ha)	percentage damage caused to the plant, IPOHE (five-point scale) ([2]; 1000 g/ha)	percentage damage caused to the plant, AMAPA (five-point scale) ([3]; 1000 g/ha)	percentage damage caused to the plant, AMARE (five-point scale) ([4]; 1000 g/ha)
CCOC(=O)c1c(-c2ccc(Cl)c(Cl)c2)n(CC)c(Cn2nccc2Cl)cc1=O [Compound 67, ethyl 6-[(5-chloropyrazolo-1-yl)methyl]-2-(3,4-dichlorophenyl)-1-ethyl-4-oxo-pyridine-3-carboxylate]	0	0	0	0	1 (1=0-20%)	1 (1=0-20%)	–	–	–	–	–	–
CCn1c(Cn2ccc(C(F)(F)F)n2)cc(=O)c(C(=O)O)c1-c1ccc(Cl)c(S(C)(=O)=O)c1 [Compound 116, 2-(4-chloro-3-methylsulfonyl-phenyl)-1-ethyl-4-oxo-6-[[3-(trifluoromethyl)pyrazol-1-yl]methyl]pyridine-3-carboxylic acid]	–	–	–	–	–	–	1 (1=0-20%)	1 (1=0-20%)	1 (1=0-20%)	1 (1=0-20%)	1 (1=0-20%)	1 (1=0-20%)
CCn1c(Cn2cnc(Cl)c2)cc(=O)c(C(=O)O)c1-c1ccc(Cl)c(Cl)c1 [Compound 74, 6-[(4-chloroimidazol-1-yl)methyl]-2-(3,4-dichlorophenyl)-1-ethyl-4-oxo-pyridine-3-carboxylic acid]	–	–	–	–	–	–	0	0	1 (1=0-20%)	0	0	0
CCn1c(Cn2nc(C(F)F)c3c2CCOC3)cc(=O)c(C(=O)O)c1-c1ccc(Cl)c(Cl)c1 [Compound 87, 2-(3,4-dichlorophenyl)-6-[[3-(difluoromethyl)-6,7-dihydro-4H-pyrano[4,3-c]pyrazol-1-yl]methyl]-1-ethyl-4-oxo-pyridine-3-carboxylic acid]	0	1 (1=0-20%)	1 (1=0-20%)	0	0	0	1 (1=0-20%)	1 (1=0-20%)	1 (1=0-20%)	1 (1=0-20%)	2 (2=21-40%)	1 (1=0-20%)
CCn1c(Cn2ncc([N+](=O)[O-])c2C)cc(=O)c(C(=O)O)c1-c1ccc(Cl)c(Cl)c1 [Compound 69, 2-(3,4-dichlorophenyl)-1-ethyl-6-[(5-methyl-4-nitro-pyrazol-1-yl)methyl]-4-oxo-pyridine-3-carboxylic acid]	–	–	–	–	–	–	3 (3=41-60%)	1 (1=0-20%)	2 (2=21-40%)	1 (1=0-20%)	1 (1=0-20%)	1 (1=0-20%)
CCn1c(Cn2nc(C)cc2OC(C)(C)C)cc(=O)c(C(=O)O)c1-c1ccc(Cl)c(Cl)c1 [Compound 152, 6-[(5-tert-butoxy-3-methyl-pyrazol-1-yl)methyl]-2-(3,4-dichlorophenyl)-1-ethyl-4-oxo-pyridine-3-carboxylic acid]	–	–	–	–	–	–	0	1 (1=0-20%)	1 (1=0-20%)	0	1 (1=0-20%)	1 (1=0-20%)
